The values that follow come from patent publication US20220380801A1, “TRIPARTITE SYSTEMS FOR PROTEIN DIMERIZATION AND METHODS OF USE” (priority 2019, published 2022).

Each structure is given as a SMILES string.

Experiment [1] deals with endogenous IL-2 gene in HEK293 cells. As to the kind of experiment: Endogenous gene regulation assay (CRISPRa). The format is cell-based, human. The note with it: 300 nM simeprevir, split dCas9/AD cassette and IL-2 targeted gRNA. The text has this:
CRISPRa relies on the use of a dead Cas9 enzyme (dCas9) with no endonuclease activity to bind to a target site within the promoter region of an endogenous gene via a single guide RNA. Upon recruitment of a transcriptional activator, transcription of the endogenous gene is initiated.
The dCas9 and AD are separately fused to the two protein components of the CID such that, only in the presence of the small molecule inducer, the AD is brought into close proximity to dCas9, allowing recruitment of the transcription machinery to the promoter region of an endogenous gene via a single guide RNA (sgRNA). In this example, an activation plasmid was generated consisting of two functional units; an AD fused to the HCV NS3/4A PR (S139A) (SEQ ID 226) and a dCas9 fused to three tandem copies of PRSIM-23 (SEQ ID 228). The sequences are preceded by a CMV promoter and separated by an internal ribosome entry site (IRES). A gRNA plasmid was generated by golden gate assembly, utilising BsaI. […]
Transcriptional regulation assays were performed in adherent HEK293 cells cultured in 96-well plates. Cells enzymatically dissociated from a tissue culture flask were counted and plated at 2.5×10^4 cells/well. […] 72 hours post-treatment (day 6), the cell supernatant was harvested and IL-2 quantified using a V-PLEX Human IL-2 Kit (Meso Scale Discovery), as per the manufacturer's protocol.

The target in a further experiment is HCV NS3/4A PR (S139A) (Hepatitis C virus subtype 1a, UniProt A8DG50, A1066T/I1043Q/I1044E/L1039E/L1040E/L1047Q/S1165A, form not given). Nature of the experiment: Octet RED384 simeprevir affinity. Format: binding. The note with it: WT (S139A). The method, then:
(§1) The biotinylated HCV NS3/4A PR (S139A), HCV NS3/4A K136D PR, HCV NS3/4A K136N PR and HCV NS3/4A D168E PR were loaded on High Precision Streptavidin (SAX) biosensors at a concentration of 2 μg/ml in 10 mM Hepes pH 7.4, 150 mM NaCl, 0.05% Surfactant P20, 0.3% DMSO. The simeprevir was diluted […] (46.88-3,000 nM) in the same buffer and the loaded biosensors were dipped into the simeprevir samples for 180 sec to measure the association. For the dissociation the biosensors were dipped into the buffer for 600 sec. The traces were analysed using ForteBio Data Analysis software and fit globally using a 1:1 binding model.
(BLI is a label-free optical method that tracks binding on a fibre tip over time.)

The target of a further experiment is HCV NS3/4A K136N PR (Hepatitis C virus subtype 1a, UniProt A8DG50, A1066T/I1043Q/I1044E/K1162N/L1039E/L1040E/L1047Q/S1165A, form not given). As to the kind of experiment: Octet RED384 simeprevir affinity. Format: binding. The method, then: as §1
The next experiment concerns the target HCV NS3/4A D168E PR (Hepatitis C virus subtype 1a, UniProt A8DG50, A1066T/D1194E/I1043Q/I1044E/L1039E/L1040E/L1047Q/S1165A, form not given). As to the kind of experiment: Octet RED384 simeprevir affinity. The format is binding. Here is the method: as §1
A further experiment addresses HCV NS3/4A K136D PR (Hepatitis C virus subtype 1a, UniProt A8DG50, A1066T/I1043Q/I1044E/K1162D/L1039E/L1040E/L1047Q/S1165A, form not given). Nature of the experiment: Octet RED384 simeprevir affinity. The format is binding. Here is the method: as §1
The test system of experiment [2] is HCV NS3/4A PR (S139A):PRSIM_23. As to the kind of experiment: HTRF complex formation with alternative HCV PR inhibitors. Format: binding, Hepatitis C virus subtype 1a. The following applies: simeprevir substituted with alternative inhibitor. Here is the method: (§2) scFv and Tn3 PRSIM binding molecules that were selective for the HCV NS3/4A PR (S139A) were identified in homogeneous time-resolved fluorescence (HTRF®) assays run in parallel to measure binding in the presence and absence of simeprevir. HCV NS3/4A PR (S139A), and serial dilutions of purified PRSIM binding molecules, were prepared in assay buffer (PBS containing 0.4 M potassium fluoride and 0.1% BSA). Streptavidin cryptate (Cisbio) was pre-mixed with either anti-FLAG XL665 (to detect the Tn3 molecules) or anti-c-myc XL665 (to detect the scFv molecules) in assay buffer. For each assay 2.5 μl of sample titration was added to 2.5 μl HCV NS3/4A PR (S139A) and 2.5 μl of pre-mixed detection reagents. Either 2.5 μl simeprevir or 2.5 μl of a DMSO blank were also added to each well. […] Assay plates were incubated overnight at 4° C., prior to reading the time resolved fluorescence at 620 nm and 665 nm emission wavelengths using a PerkinElmer Envision plate reader. Data was analysed by calculating % Delta F values for each sample. Delta F was determined according to equation 1.
(§3) There are several small molecule inhibitors that are known to bind the HCV NS3/4A protease and have been approved for human use. A panel of such small molecules were assessed for their ability to induce complex formation between HCV NS3/4A PR (S139A) and PRSIM_23 or PRSIM_57. […]
In general terms: Time-resolved FRET reads energy transfer from a long-lived donor to a nearby acceptor.

In experiment [3] the test system is HCV NS3/4A PR (S139A):PRSIM_57. The experiment is described as above. Format: binding, Hepatitis C virus subtype 1a. The following applies: simeprevir substituted with alternative inhibitor. The method, then: as §2, §3

One may read the Kd as the concentration at which binding is half-saturated. Higher therefore signals weaker binding. A word on the koff: it is the rate constant with which the complex falls apart. High values mean fast dissociation, low ones slow dissociation. By kon is commonly meant the rate constant with which the complex forms. A higher kon goes with faster complex formation. In the case of `COc1ccc2c(O[C@@H]3C[C@H]4C(=O)N[C@]5(C(=O)NS(=O)(=O)C6CC6)C[C@H]5/C=C\CCCCN(C)C(=O)[C@@H]4C3)cc(-c3nc(C(C)C)cs3)nc2c1C` [simeprevir], the IL-2 secretion result in experiment [1] is “resulted in secretion of IL-2”. Besides, the Kd stood at 17.8 nM at HCV NS3/4A PR (S139A), 31.5 nM at HCV NS3/4A K136N PR, 33 nM at HCV NS3/4A D168E PR and 62.6 nM on HCV NS3/4A K136D PR. Moreover, the koff is 0.000495 s⁻¹ at HCV NS3/4A PR (S139A), 0.00107 s⁻¹ at HCV NS3/4A K136N PR, 0.000665 s⁻¹ at HCV NS3/4A D168E PR and 0.00234 s⁻¹ at HCV NS3/4A K136D PR. For the same compound, the kon is 27800 M⁻¹ s⁻¹ at HCV NS3/4A PR (S139A), 33800 M⁻¹ s⁻¹ on HCV NS3/4A K136N PR, 20000 M⁻¹ s⁻¹ on HCV NS3/4A D168E PR and 36200 M⁻¹ s⁻¹ on HCV NS3/4A K136D PR. In addition, the figures for the “decreased simeprevir affinity compared to ‘WT’ (S139A)” value at HCV NS3/4A K136N PR, on HCV NS3/4A D168E PR and at HCV NS3/4A K136D PR were ~2 fold, ~2 fold and ~3.5 fold, respectively. Moreover, the “induction of complex formation” value in experiment [2] and in experiment [3] was “induction of complex formation was specific for simeprevir” throughout.
